Here are results for one compound from patent publication US20190330167A1, “ACTIVATORS OF HIV LATENCY” (priority 2016, published 2019).

The subject of data set [1] is J.Lat10.6 T-cell line. The experiment in a line: Dose dependent toxicity in the J.Lat model. It counts as cell-based. The note with it: dosed as high as 40 μM.
For data set [2], the system named is latent HIV in resting memory CD4+ T cells isolated by leukapheresis from HIV+ donors on antiretroviral therapy. It counts as cell-based, HIV-1. The note with it: 72 hrs. The source says: FIG. 41a. […] Resting memory CD4+ T cells isolated by leukapheresis from HIV+ donors on antiretroviral therapy were reactivated for 72 hrs using known LRAs including vorinostat (Vor) also known as suberanilohydroxamic acid, another hydroxamic acid panobinostat (Pan), and the depsipeptide Romidepsin (Rom) that are all HDACi, together with JQ1 (+) which is a thienotriazolodiazepine known to inhibit the BET family of bromodomain proteins including BRD2, BRD3, and BRD4, and compared with compounds according to the present invention DP#6 (Compound 41), DP#14 (Compound 7), and DP#16 (Compound 64).
FIG. 41c. […] Resting memory CD4+ T cells isolated by leukapheresis from HIV+ donors on antiretroviral therapy were reactivated for 72 hrs using known (vorinostat, Vor; panobinostat, Pan; romidepsin, Rom; and JQ1 (+)) and compounds according to the present invention (DP#6 (Compound 41), DP#14 (Compound 7), and DP#16 (Compound 64)).
FIG. 42c. […] Resting memory CD4+ T cells isolated by leukapheresis from HIV+ donors on antiretroviral therapy were reactivated for 72 hrs using known (JQ1 (+)) and compounds according to the present invention (DP#14 (Compound 7)) alone and in combination, and HIV-1 RNA detected through qPCR.
Total peripheral blood mononuclear cells (PBMC) were stored frozen in liquid nitrogen and prior to use, vials of frozen cells (0.5×10^8 PBMCs/vial or 1×10^8 PBMCs/vial) were quick thawed in a 42° C. water bath. Cells were promptly transferred to a 15 mL tube with 5 mL FBS dropwise then, then 6 mL of RF10 was added. Cells were pelleted at 300 g for 10 min at room temperature. Following aspiration, the cells were resuspended in RF10, pooled into a 50 mL tube which was topped up with RF10. PBMC were pelleted again at 300 g for 10 min at room temperature. Following aspiration, the cells were resuspended in PBS(−/−) and counted. CD4+ T cells were then isolated from 4×10^8 PBMCs that were pelleted and resuspended in PBS(−/−) at 1×10^7 cells/40 μL. 10 μL of CD4+ T cell Biotin-Antibody cocktail (Miltenyi Biotec) for every 1×10^7 cells was added and the mix refrigerated for 5 min. 30 μL of PBS(−/−) for every 1×10^7 cells was added, and 20 μL of the CD4+ T cell MicroBeads for every 1×10^7 cells was added and the mix refrigerated for 10 min. Unlabelled CD4+ T cells were then isolated by negative selection using magnetic separation. CD4+ T cells were then counted before being diluted to 4×10^6 cells/500 μL in RF10 for each condition and seeded into a 48 well plate.
Latent HIV was reactivated in the presence of the HIV integrase inhibitor Raltagravir (Ral) to prevent any further rounds of infection. Ral was made to [2 μM] in RF10+IL-2 (2 U/mL), and used to make 1 mL preparation of each drug up at [×2]. 500 μL of the [×2 Ral/IL-2/drug] was then added to the appropriate wells containing cells. Cells were transported to PC3 and incubated for 72 hrs.
Following reactivation, 800 μL of cell supernatant was transferred to labeled 1.5 mL screwcap tubes, pelletted at 800 g for 10 min then transferred to a second set of tubes and frozen for possible use at a later date. 800 μL of PBS(−/−) was added to each well to mix the cells and 50 μL of cells transferred to another set of tubes for live/dead staining and flow cytometry. Cells were pelleted at 400 g for 10 min, the media aspirated and cells resuspended in 100 μL of a [×1] APC-cy7 live/dead stain (Life technologies).

SMILES strings stand for the structures. Like-named read-outs stand apart in the source and are kept apart here.

For `O=C(CCCOc1ccccc1)Nc1ncc(Br)s1` [Compound 7], the dose dependent toxicity result in data set [1] is given as “no such toxicity”. The “induction of HIV-1 gene expression, % of the normalized value” in data set [2] (at 5 μM, normalized between unstimulated baseline and PMA as 100%) is 24%; in data set [2] (normalized between unstimulated baseline and PMA positive control as 100%, concentration not given), 24%.
